In patent US20140179681A1, “METHODS AND COMPOSITIONS OF TARGETED DRUG DEVELOPMENT” (priority 2010, published 2014):
“And” between values parts separate entries of the source, which are not always exact repeats. Equal entries are not always repeated. Structures can show the parent of a compound that is named as a salt. Where two headings read alike, the source gives them in different places.

Key:
EGFR = biological target: T1, EGFR (Homo sapiens, UniProt P00533); assay: EGFR in-cell Western (ICW) screening protocol (EGFR inhibition assay); format: cell-based; design: ICW 1 / ICW 2 / ICW Avg: unit not given here; settings: for ICW Avg / ICW 1 / ICW 2: ICW assay; for ICW Avg: average of runs 1 and 2; for ICW 1: run 1; for ICW 2: run 2; for ICW assay: Table 10
T1 construct: host or cells: A431
Procedure, shortened: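 Serum-starved A431 cells (2 h) were pretreated with compound for 4 h at 37° C, then stimulated with EGF (10 ng/ml final, or 6.6 or 12.5 ng/ml in some runs) for 10 min. After formaldehyde fixation, phospho-EGFR (Tyr1173, or Tyr1045 in some runs) and total EGFR were detected by in-cell Western immunostaining.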

[1] = test system: epithelial carcinoma A431 cell line; assay: MTT Cell Proliferation Assay, A431 cells; format: cell-based; settings: for MTT Assay IC50(A431/MDBK): ratio in parentheses: ratio MDBK IC50 / A431 IC50 (selectivity)
Procedure, shortened: (§1)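 Viability was measured by mitochondrial MTT reduction after cells were exposed to compound for 3 days in reduced-serum medium. Inhibition was calculated per plate against 0.5% DMSO controls.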

MDBK line = assay: MTT Cell Proliferation Assay, MDBK cells; format: cell-based, bovine
Procedure, shortened: as §1

[2] = Homo sapiens, A-431, A431 cells, first value of cell, read-out: MTT Assay IC50(A431/MDBK): A431
[3] = Bos taurus, MDBK, MDBK cells, second value of cell, read-out: MTT Assay IC50(A431/MDBK): MDBK
[4] = Homo sapiens, A-431, first value of 'a/b (c)', taken as A431 cells, read-out: MTT Screen, first value of cell
[5] = Bos taurus, MDBK, second value of 'a/b (c)', taken as MDBK cells, read-out: MTT Screen, second value of cell
[6] = % Inhibition of EGF dependent EGFR phosphorylation in A431 cells, compound 125 μM in assay
[7] = Homo sapiens, A-431, 72 h, Table 10, first of x/y(ratio): A431, three day treatment, unit not printed (doses in μM), read-out: MTT assay (first value)
[8] = Bos taurus, MDBK, 72 h, Table 10, second of x/y(ratio): MDBK, three day treatment, unit not printed (doses in μM), read-out: MTT assay (second value)

T1 sequence (P00533 25-1210): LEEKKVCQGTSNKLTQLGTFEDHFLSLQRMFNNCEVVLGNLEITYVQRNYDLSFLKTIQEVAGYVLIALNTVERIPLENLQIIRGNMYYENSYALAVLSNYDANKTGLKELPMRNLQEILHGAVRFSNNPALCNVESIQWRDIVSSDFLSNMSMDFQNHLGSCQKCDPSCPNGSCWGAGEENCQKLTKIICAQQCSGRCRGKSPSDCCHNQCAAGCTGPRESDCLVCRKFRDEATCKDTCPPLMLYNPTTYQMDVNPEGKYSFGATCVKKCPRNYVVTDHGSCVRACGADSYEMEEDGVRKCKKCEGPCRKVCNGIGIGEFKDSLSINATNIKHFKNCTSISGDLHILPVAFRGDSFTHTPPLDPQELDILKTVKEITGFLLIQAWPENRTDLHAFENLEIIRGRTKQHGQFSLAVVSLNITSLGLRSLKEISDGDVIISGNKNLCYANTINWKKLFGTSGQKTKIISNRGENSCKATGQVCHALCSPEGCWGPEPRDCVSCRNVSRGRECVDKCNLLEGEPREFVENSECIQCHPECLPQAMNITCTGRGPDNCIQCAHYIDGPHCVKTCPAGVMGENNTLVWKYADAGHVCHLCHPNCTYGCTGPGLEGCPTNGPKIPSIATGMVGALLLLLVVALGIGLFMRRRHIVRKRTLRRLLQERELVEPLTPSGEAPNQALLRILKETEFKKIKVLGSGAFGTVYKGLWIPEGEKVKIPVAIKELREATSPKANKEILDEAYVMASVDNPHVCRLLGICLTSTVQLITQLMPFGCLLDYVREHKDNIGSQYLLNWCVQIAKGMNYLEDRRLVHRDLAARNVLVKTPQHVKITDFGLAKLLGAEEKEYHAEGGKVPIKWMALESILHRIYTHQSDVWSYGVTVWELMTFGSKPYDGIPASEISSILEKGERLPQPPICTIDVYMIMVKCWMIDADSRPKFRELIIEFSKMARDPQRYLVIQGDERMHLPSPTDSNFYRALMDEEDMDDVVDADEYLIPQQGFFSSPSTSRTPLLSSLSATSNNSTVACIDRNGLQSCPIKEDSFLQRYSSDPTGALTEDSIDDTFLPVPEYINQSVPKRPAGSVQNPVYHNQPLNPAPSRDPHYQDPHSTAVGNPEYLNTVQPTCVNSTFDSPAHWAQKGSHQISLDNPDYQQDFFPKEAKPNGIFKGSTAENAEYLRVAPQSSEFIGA

| ICW Avg (EGFR) | ICW 1 (EGFR) | ICW 2 (EGFR) | IC50 [1, 2] | MTT Assay IC50(A431/MDBK): ratio in parentheses [1] | Structure (SMILES) | IC50 (MDBK line; [3]) | also measured |
| --- | --- | --- | --- | --- | --- | --- | --- |
| 39.92 | 37.43 | 42.40 | 36.9 µM | 1.20 | COc1ccc(-c2cc(=O)[nH]c(Nc3nc(C)c4ccccc4n3)n2)cc1OC [11471 + TFA] | 44.1 µM | – |
| 37.56 | 31.05 | 44.08 | 4.66 µM | 1.15 | COc1cccc2c(C)nc(Nc3nc(-c4ccc(F)cc4)cc(=O)[nH]3)nc12 [compound 12778] | 5.34 µM | – |

Second part, the molecule before the results:

| Structure (SMILES) | ICW Avg (EGFR) | ICW 1 (EGFR) | ICW 2 (EGFR) | IC50 [1, 2] | MTT Assay IC50(A431/MDBK): ratio in parentheses [1] | IC50 (MDBK line; [3]) | also measured |
| --- | --- | --- | --- | --- | --- | --- | --- |
| C=CCc1c(C)nc(Nc2nc(C)c3cccc(OC)c3n2)[nH]c1=O [compound 12746] | 32.65 | 18.02 | 47.28 | 17.9 µM | 0.67 | 11.9 µM | – |
| COc1ccc(/C=C/C(=O)NC(=S)Nc2ccc(S(=O)(=O)Nc3cc(C)on3)cc2)cc1 [AD4-11867] | – | – | – | – | – | – | ICW Screen (ICW Inhibition) (EGFR): 32.432; IC50 [1, 4]: 51 µM; IC50 (MDBK line; [5]): 48.1 µM |
| O=S(=O)(Nc1ccc(Cl)c(Cl)c1)c1ccc(NC(=S)Nc2cccc(F)c2)cc1 [AD4-12431] | – | – | – | – | – | – | ICW assay (EGFR; [6]): 26.7815; IC50 [1, 7]: 6.4 µM; IC50 (MDBK line; [8]): 5.57 µM |
| Cc1cc(C)cc(NC(=S)Nc2ccc(S(=O)(=O)Nc3ccc(Cl)cc3)cc2)c1 [AD4-12512] | – | – | – | – | – | – | ICW assay (EGFR; [6]): 28.9126; IC50 [1, 7]: 6.4 µM; IC50 (MDBK line; [8]): 5.83 µM |
| Cc1cc(NS(=O)(=O)c2ccc(NC(=S)NC(=O)/C=C/c3ccccc3)cc2)no1 [AD4-12173] | – | – | – | – | – | – | ICW Screen (ICW Inhibition) (EGFR): 35.393; IC50 [1, 4]: 37.3 µM; IC50 ([1]; first value of 'a/b (c)', taken as A431 cells, read-out: MTT Screen, first value of cell): 55.8 µM; IC50 (MDBK line; second value of 'a/b (c)', taken as MDBK cells, read-out: MTT Screen, second value of cell): 106 µM and 54 µM |
| Cc1cc(C)c2nc(Nc3nc(CSc4nnc(C)s4)cc(=O)[nH]3)nc(C)c2c1 [compound 11476] | 33.91 | 36.71 | 31.11 | 17.9 µM | 0.74 | 13.3 µM | – |
| CCCc1c(C)nc(Nc2nc(C)c3cc(C)ccc3n2)[nH]c1=O [compound 12667] | 31.86 | 29.45 | 34.27 | 36.1 µM | 0.54 | 19.6 µM | – |
| Cc1ccc(NS(=O)(=O)c2ccc(NC(=S)NC(=O)C(C)(C)C)cc2)c(C)c1 [AD4-11968] | – | – | – | – | – | – | ICW Screen (ICW Inhibition) (EGFR): 45.095; IC50 [1, 4]: 6.49 µM; IC50 (MDBK line; [5]): 6.29 µM |
| CCc1ccc2nc(Nc3nc(C)c4c(n3)CCCC4)nc(C)c2c1 [compound 12213] | 28.01 | 28.35 | 27.66 | 39.1 µM | 0.99 | 38.6 µM | – |
| COc1ccc2nc(Nc3nc(C)c(Cc4cccc(Cl)c4)c(=O)[nH]3)nc(C)c2c1 [11742 + TFA] | 35.74 | 33.84 | 37.63 | 16.1 µM | – | – | MTT Assay IC50(A431/MDBK): MDBK (MDBK line; MDBK cells, second value of cell): non-convergent |
| Cc1ccc(NC(=S)Nc2ccc(S(=O)(=O)Nc3cc(Cl)cc(Cl)c3)cc2)cc1 [AD4-12460] | – | – | – | – | – | – | ICW assay (EGFR; [6]): 42.5115; IC50 [1, 7]: 6.33 µM; IC50 (MDBK line; [8]): 5.61 µM |
| Cc1ccc(NC(=S)Nc2ccc(S(=O)(=O)Nc3ccc(Cl)cc3)cc2)cc1Cl [AD4-12505] | – | – | – | – | – | – | ICW assay (EGFR; [6]): 93.3284; IC50 [1, 7]: 5.69 µM; IC50 (MDBK line; [8]): 6.02 µM |
| CCCc1c(C)nc(Nc2nc(C)c3cccc(C)c3n2)[nH]c1=O [12625 + TFA] | 34.27 | 30.45 | 38.10 | 21.2 µM | 0.80 | 17 µM | – |
| COc1ccccc1/C=C/C(=O)NC(=S)Nc1ccc(S(=O)(=O)Nc2nc(C)cc(C)n2)cc1 [AD4-12148] | – | – | – | – | – | – | ICW Screen (ICW Inhibition) (EGFR): 51.845; IC50 [1, 4]: 42.8 µM; IC50 (MDBK line; [5]): 39.2 µM |
| Cc1cc(C)nc(NS(=O)(=O)c2ccc(NC(=S)NC(=O)COc3ccc(Br)cc3Cl)cc2)n1 [AD4-12158] | – | – | – | – | – | – | ICW Screen (ICW Inhibition) (EGFR): 36.727; IC50 [1, 4]: 5.01 µM; IC50 (MDBK line; [5]): 4.58 µM |
| Cc1nc(Nc2nc(CSc3ccccn3)cc(=O)[nH]2)nc2ccccc12 [12740 + TFA] | 28.34 | 28.77 | 27.91 | – | 0.48 | – | IC50 ([1]; A431 cells, first value of cell, read-out: MTT Assay IC50(A431/MDBK): A431): 49.4 µM; IC50 (MDBK line; MDBK cells, second value of cell, read-out: MTT Assay IC50(A431/MDBK): MDBK): 23.6 µM |
| O=c1cc(CN2CCN(Cc3ccc4c(c3)OCO4)CC2)c2cc(Cl)c(O)cc2o1 [AD4-10618] | – | – | – | – | – | – | ICW Screen (EGFR; Table 11, % Inhibition of EGF dependent EGFR phosphorylation in A431 cells, compound 125 μM in assay): −3.062; IC50 ([1]; Homo sapiens, A-431, 72 h, Table 11, first of x/y(ratio): A431, unit not printed (doses in μM), read-out: MTT Screen (first value)): 18.4 µM; MTT Screen (second value) (MDBK line; Table 11, second of x/y(ratio): MDBK, unit not printed (doses in μM)): non-convergent |
